The values that follow come from US5281585A, “Fibrinogen receptor antagonists for inhibiting aggregation of blood platelets” (Merck & Co., Inc., priority 1992, dated 1994).

Assay [1] concerns platelet aggregation. Briefly: In vivo activity in dogs: ex vivo platelet aggregation, intravenous infusion. Also noted: species or system dog. Conditions: 10 μg/kg/min and 25 μg/kg/min. The procedure:
(§1) The following protocols were used to determine in vivo activity in dogs of fibrinogen receptor antagonists of the present invention.
(§2) A mongrel dog of either sex (weighing 7.5 to 11.5 kg) is comfortably positioned in a nylon sling which exposes the legs and keeps the dog stationary. Five ml of blood is withdrawn from either saphenous or cephalic veins with a plastic syringe containing 0.5 ml of 3.8% citrate via a 19-gauge butterfly. An additional I ml of citrated blood is taken to measure whole blood platelet counts. Ex vivo platelet aggregations are done with the agonists ADP (10 μM) and collagen (10 μg/ml) both primed with 1μM epinephrine. Platelet-rich plasma (PRP) is obtained by centrifuging the blood at 150 x g for 5 minutes. Platelet counts are adjusted to 200,000/mm^3 with platelet-poor plasma.
For the intravenous infusion, blood samples for ex vivo platelet aggregation are taken at the following time points: 0,30, 45, 60, 90 and 120 min into the infusion and 2,5, 15, 30, 60, 90, 120, 180, 240, 300, 360, and 420 minutes after the infusion stops. At each time point, the remaining platelet-poor plasma is saved and frozen for drug levels. The drug is infused for 120 minutes at a constant rate of 0.1 ml/min.
(§3) In the oral and intravenous groups, blood collection times are recorded at each time point in order to determine drug plasma levels.

Assay [2] relates to platelet aggregation. Briefly: In vivo activity in dogs: ex vivo platelet aggregation, oral administration. Also noted: species or system dog. Conditions: single oral administration of 2 mg/kg, for a period of eight hours. The procedure: as §1, §2
Oral administration of a drug is done either as a gelatin capsule or a gastric lavage. For the gastric lavage method, 5 ml of the drug solution is administered to the dog through a feeding tube. Blood samples for ex vivo platelet aggregation are taken at the following time points: 0,20, 40, 70, 90, 150, 200, 250, 300, 350, 480 min. 24 hr. 30 hr, and 48 hr. At each time point, the remaining platelet-poor plasma is saved and frozen for drug levels. […]
as §3

In the case of `O=C(O)CCNC(=O)CN1CCCC(CCC2CCNCC2)C1=O` (stereo not drawn), in the assay with platelet aggregation [1] (during infusion), the “Inhibition of platelet aggregation (% of control) during infusion” value was “nearly complete”. Further, in the assay with platelet aggregation [1] (for several hours after infusion cessation), the “Inhibition of platelet aggregation (% of control) after infusion cessation” value is “partial inhibition”. The “% Inhibition of platelet aggregation” value in the assay on platelet aggregation [2] is reported as “greater than 50%”.
